Laboratory results as given in a melting point compilation (Tetko et al.; mined from patent text by program, amines drawn as free bases though some values may be those of a salt).
Non-standard residues stand in square brackets, D forms with d. Residues, ends and D or L forms follow the SMILES beside them. pGlu = O=C1CC[CH](C(=O)O)N1

Compared with `O=S(=O)(c1ccccc1)C(Cc1ccccc1)c1ccc(C(O)(C(F)(F)F)C(F)(F)F)cc1` (configuration not stated), `O=C(CBr)N[C@H](Cc1ccc(C(F)(F)F)cc1)[C@@H](O)c1ccc(F)cc1` (racemic) is lower in melting point: 157 °C for the first, 151 to 152 °C for the second.

`COc1cc(C=C(N)C(C)=O)ccc1OCC(O)CNC(C)C` (configuration not stated) and `CCOC(=O)c1ncc2[nH]c3cccc(CO)c3c2c1COC` fall in the same range of melting point: 139 to 140 °C for the first, 139 to 140 °C for the second.

First: Cc1ncccc1C(C#N)N1CCN(C(=O)CC(NC(=O)c2ccc(OCc3ccc4ccccc4n3)cc2)c2ccccc2)CC1 (configuration not stated)
Second: Cc1cccc(C(C)C)c1NC(=O)Nc1c(C)nc(-c2ccccc2)nc1-c1ccccc1Cl
The melting point of the first is lower: 104 to 110 °C for the first, 266 to 267 °C for the second.

Compared with `O=C(c1ccc(-c2cccs2)cc1)N1Cc2ccccc2Nc2ccccc21`, `Cc1cc(-c2cc(O)c(SCCc3ccccc3)c(=O)o2)ccc1OCc1cccnc1` is higher in melting point: 114 to 116 °C for the first, 149 to 151 °C for the second.

Compared with `CCOC(=O)c1c(C)nn(C)c1S(=O)(=O)N=c1nc2nc(C)cc(C)n2s1`, `CSc1cc(C)c(C(=O)N=C(N)N)cc1S(C)(=O)=O` is higher in melting point: 167 to 168 °C for the first, 220 to 222 °C for the second.

First: Nc1cc(NC(=O)c2ccc(Cl)c(Cl)c2)ccc1F
Second: CC(Oc1ccc(Oc2ccc3cc(Cl)ccc3n2)cc1)C(=O)O (configuration not stated)
The melting point of the first is higher: 151 to 153 °C for the first, 130 °C for the second.

First: CCC(CC)Nc1c([N+](=O)[O-])cc(C)c(Cl)c1[N+](=O)[O-]
Second: CC(=O)Nc1cc(C)c([N+](=O)[O-])cn1
The melting point of the first is lower: 61 to 62.5 °C for the first, 153 to 154 °C for the second.

First: O=C(O)CN1C(=O)C(=Cc2ccc(OCc3ccccc3)c(OCc3ccc(F)c(F)c3)c2)SC1=S
Second: COc1cn(-c2ccc(OC(F)(F)F)cc2F)nc(-c2ccnn2-c2ccccc2)c1=O
The melting point of the first is higher: 231 to 236 °C for the first, 117 to 118 °C for the second.

Compared with `OC[C@@H](O)[C@@H](CO)OCc1ccccc1Cl`, `CC(C)Cn1cc(F)c(NCc2ccccc2F)nc1=O` is higher in melting point: 74 to 76 °C for the first, 118 to 119 °C for the second.

First: O=c1cccnn1-c1ccc2nc([C@H]3C[C@H](N4CCCCC4)C3)sc2c1
Second: CC(=O)Oc1ccc(/C=C2/Sc3nc(Nc4ccc(N5CCN(C)CC5)cc4)ncc3NC2=O)cc1
The melting point of the first is lower: 127 to 128 °C for the first, 168 to 171 °C for the second.

First: CC(C)(C)Oc1ccc(C(=O)N[C@H]2CC[C@H](CCN3CCC(c4cccc5c4CCO5)CC3)CC2)cc1
Second: CC(C)COc1c(C2CCN(CCCCNC(=O)c3ccc(-c4ccc(C(F)(F)F)cc4)cc3)CC2)ccc2c1CCCC2
The melting point of the first is higher: 216 °C for the first, 165 °C for the second.

First: O=Cc1cc([N+](=O)[O-])ccc1Br
Second: CC(=O)CC(=O)CC(=O)c1cc(S(=O)(=O)c2ccccc2)ccc1[N+](=O)[O-]
The melting point of the first is lower: 86 to 88 °C for the first, 143 to 145 °C for the second.

Compared with `CC(=O)n1ccc(=O)c(O)c1C`, `CCNc1cc(O)c(C(C)=O)cc1C(C)=O` is lower in melting point: 152 to 160 °C for the first, 103 to 104 °C for the second.

First: CN(N)C1=NOCc2ccc(Cl)cc21
Second: CN(Cc1ccc(Cl)cc1)S(=O)(=O)c1cn(S(=O)(=O)N(C)C)c(C#N)n1
The melting point of the first is lower: 124 to 125 °C for the first, 162 to 163 °C for the second.

First: NC(=O)CC(NC(=O)C(CO)NC(=O)CNC(=O)CNC(=O)C1CCC(=O)N1)C(=O)NC(Cc1ccccc1)C(N)=O (configuration not stated) ([pGlu]GGSNF-NH2; configuration not given here)
Second: CNC(=O)c1cc2c(nc(C)n2C)c2c1C[C@@H](O)[C@@H](c1ccccc1)N2
The melting point of the first is lower: 218 to 221 °C for the first, 265 to 268 °C for the second.

Compared with `CCCCCCCCCOC1C(O)C(CO)OC1n1cnc2c(=O)[nH]c(N)nc21` (configuration not stated), `CCCCCCCCc1ccc(N=Nc2ccc(OC(=O)CCOCCCCCCC)cc2)cc1` is lower in melting point: 258 to 259 °C for the first, 42.1 °C for the second.

First: CCN(CC)C(=O)c1cccc(OC)c1-c1ccccc1
Second: COc1ccc(-n2ccc3ccccc32)cc1
The melting point of the first is higher: 55 to 56 °C for the first, 52 to 54 °C for the second.

First: CCc1cc2c(s1)-n1c(C)nnc1C(N)N=C2c1ccccc1Cl (configuration not stated)
Second: COc1ccc2c(Cc3c(Cl)cncc3Cl)nnc(CN3CCOCC3)c2c1
The melting point of the first is lower: 130 to 131 °C for the first, 203 to 206 °C for the second.

`CNCc1ccc2c(c1)C(Cc1ccnc(F)c1)(Cc1ccnc(F)c1)c1ccccc1-2` gave a melting point of 130 to 134 °C.
